Assay results taken from patent US20240279202A1 (NURIX THERAPEUTICS, INC., priority 2021, published 2024).

Molecular target: T1, ITK (Homo sapiens, UniProt Q08881)
T1 sequence (Q08881 1-620): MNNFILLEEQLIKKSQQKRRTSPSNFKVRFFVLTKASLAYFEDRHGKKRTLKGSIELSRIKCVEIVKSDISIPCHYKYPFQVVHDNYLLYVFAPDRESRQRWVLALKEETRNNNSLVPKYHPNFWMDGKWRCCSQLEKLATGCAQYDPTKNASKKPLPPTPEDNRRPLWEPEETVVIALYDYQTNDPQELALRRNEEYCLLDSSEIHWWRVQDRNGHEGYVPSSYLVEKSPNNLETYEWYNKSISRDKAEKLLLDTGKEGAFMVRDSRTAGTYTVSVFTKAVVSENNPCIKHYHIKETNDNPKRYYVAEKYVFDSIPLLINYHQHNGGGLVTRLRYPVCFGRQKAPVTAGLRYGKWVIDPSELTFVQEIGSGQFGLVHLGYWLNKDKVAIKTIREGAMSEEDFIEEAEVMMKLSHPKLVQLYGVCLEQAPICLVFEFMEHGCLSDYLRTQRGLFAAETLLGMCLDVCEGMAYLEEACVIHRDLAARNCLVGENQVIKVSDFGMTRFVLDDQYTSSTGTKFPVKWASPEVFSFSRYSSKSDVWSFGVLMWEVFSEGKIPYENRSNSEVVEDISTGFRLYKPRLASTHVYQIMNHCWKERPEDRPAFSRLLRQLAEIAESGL
Assay: ITK degradation HiBiT assay
Assay type: cell-based
Design: expressed in transfected cells; host or cells: Molt4 (ATCC CRL-1552), monoclonal clone 1C10, engineered to carry the HiBiT tag
Conditions: 4 hrs; for Dmax: MOLT-4, C-terminal HiBiT-tagged Molt4 cells
Outline: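 C-terminal HiBiT-tagged Molt4 cells (clone 1C10) treated 4 h at 32° C with an 11-point, 5-fold compound dilution series (0.5% DMSO). HiBiT lytic detection with LgBiT then luminescence read; % ITK remaining versus concentration fit by four-parameter variable-slope model to give DC50 and Dmax.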

[1] = C-terminal HiBiT-tagged Molt4 cells

SMILES | DC50 [1] [nM] | Dmax [%] | HiBiT DMax (%) [1] [%]
CN(C(=O)CC[C@H]1CCN(c2ccc3c(c2)C(=O)N(C2CCC(=O)NC2=O)C3=O)C1)c1ccc2cc(-c3n[nH]c4c3C[C@@H]3C(F)(F)[C@]3(C)C4)[nH]c2c1 (stereo in doubt) [Compound 68] | 0.5 | – | 78
Cn1c(=O)n(C2CCC(=O)NC2=O)c2ccc(N3CCC(CN4CCC5(CC4)CCN(c4ccc6cc(-c7n[nH]c8c7CCC(C)(C)C8)[nH]c6c4)C5=O)CC3)cc21 (centres unmarked) [Compound 14, 3-(5-(4-((2-(2-(6,6-dimethyl-4,5,6,7-tetrahydro-1H-indazol-3-yl)-1H-indol-6-yl)-1-oxo-2,8-diazaspiro[4.5]decan-8-yl)methyl)piperidin-1-yl)-3-methyl-2-oxo-2,3-dihydro-1H-benzo[d]imidazol-1-yl)piperidine-2,6-dione] | 0.16 | 89 | –
C[C@@]12Cc3[nH]nc(-c4cc5ccc(N6CCC7(CCN(CC8CCN(c9ccc(C%10CCC(=O)NC%10=O)cn9)CC8)CC7)C6=O)cc5[nH]4)c3C[C@@H]1C2(F)F (stereo partly drawn) [Compound 19, 3-(6-(4-((2-(2-((4aS,5aR)-5,5-difluoro-5a-methyl-1,4,4a,5,5a,6-hexahydrocyclopropa[f]indazol-3-yl)-1H-indol-6-yl)-1-oxo-2,8-diazaspiro[4.5]decan-8-yl)methyl)piperidin-1-yl)pyridin-3-yl)piperidine-2,6-dione] | 0.27 | – | –
CN(C(=O)CCC1CCN(c2ccc(C3CCC(=O)NC3=O)cn2)CC1)c1ccc2cc(-c3n[nH]c4c3C[C@@H]3C(F)(F)[C@]3(C)C4)[nH]c2c1 (stereo partly drawn) [Compound 21, N-(2-((4aS,5aR)-5,5-difluoro-5a-methyl-1,4,4a,5,5a,6-hexahydrocyclopropa[f]indazol-3-yl)-1H-indol-6-yl)-3-(1-(5-(2,6-dioxopiperidin-3-yl)pyridin-2-yl)piperidin-4-yl)-N-methylpropanamide] | 0.01 | – | –

The next lines start with the values.

DC50 [1] [nM] | Dmax [%] | HiBiT DMax (%) [1] [%] | SMILES
2.3 | 75 | – | CN(C(=O)CC[C@H]1CCN(c2ccc3c(c2)C(=O)N(C2CCC(=O)NC2=O)C3=O)C1)c1ccc2cc(-c3n[nH]c4c3C[C@@H]3C(F)(F)[C@]3(C)C4)[nH]c2c1 (stereo in doubt) [Compound 67, N-(2-((4aS,5aR)-5,5-difluoro-5a-methyl-1,4,4a,5,5a,6-hexahydrocyclopropafindazol-3-yl)-1H-indol-6-yl)-3-((3R)-1-(2-(2,6-dioxopiperidin-3-yl)-1,3-dioxoisoindolin-5-yl)pyrrolidin-3-yl)-N-methylpropanamide]
0.48 | – | – | C[C@@H](C(=O)N(C)c1ccc2cc(-c3n[nH]c4c3CCC(C)(C)C4)[nH]c2c1)N1CCN(CC2CCN(c3ccc(C4CCC(=O)NC4=O)cn3)CC2)CC1 (stereo partly drawn) [Compound 10, (2S)—N-(2-(6,6-dimethyl-4,5,6,7-tetrahydro-1H-indazol-3-yl)-1H-indol-6-yl)-2(4-((1-(5-(2,6-dioxopiperidin-3-yl)pyridin-2-yl)piperidin-4-yl)methyl)piperazin-1-yl)-N-methylpropanamide]
2 | – | – | C[C@@H](C(=O)N(C)c1ccc2cc(-c3n[nH]c4c3CCC(C)(C)C4)[nH]c2c1)N1CCN(CC2CCN(c3ccc(N4CCC(=O)NC4=O)cn3)CC2)CC1 [Compound 11, (S)—N-(2-(6,6-dimethyl-4,5,6,7-tetrahydro-1H-indazol-3-yl)-1H-indol-6-yl)-2-(4-((1-(5-(2,4-dioxotetrahydropyrimidin-1(2H)-yl)pyridin-2-yl)piperidin-4-yl)methyl)piperazin-1-yl)-N-methylpropanamide]
0.004 | – | – | C[C@@H](C(=O)N(C)c1ccc2cc(-c3n[nH]c4c3C[C@@H]3C(F)(F)[C@]3(C)C4)[nH]c2c1)N1CCN(CC2CCN(c3ccc(N4CCC(=O)NC4=O)cn3)CC2)CC1 [Compound 18, (S)—N-(2-((4aS,5aR)-5,5-difluoro-5a-methyl-1,4,4a,5,5a,6-hexahydrocyclopropa[f]indazol-3-yl)-1H-indol-6-yl)-2-(4-((1-(5-(2,4-dioxotetrahydropyrimidin-1(2H)-yl)pyridin-2-yl)piperidin-4-yl)methyl)piperazin-1-yl)-N-methylpropanamide]
